The values that follow come from US7064207B2, “Androgen receptor antagonists” (Warner Lambert Company LLC, priority 2003, dated 2006).

One may read the pIC50 as −log10 of the IC50, conventionally taken in molar units.

The target in this assay is T1, androgen receptor (Homo sapiens, UniProt P10275).
T1 sequence (P10275 1-920 Q868H): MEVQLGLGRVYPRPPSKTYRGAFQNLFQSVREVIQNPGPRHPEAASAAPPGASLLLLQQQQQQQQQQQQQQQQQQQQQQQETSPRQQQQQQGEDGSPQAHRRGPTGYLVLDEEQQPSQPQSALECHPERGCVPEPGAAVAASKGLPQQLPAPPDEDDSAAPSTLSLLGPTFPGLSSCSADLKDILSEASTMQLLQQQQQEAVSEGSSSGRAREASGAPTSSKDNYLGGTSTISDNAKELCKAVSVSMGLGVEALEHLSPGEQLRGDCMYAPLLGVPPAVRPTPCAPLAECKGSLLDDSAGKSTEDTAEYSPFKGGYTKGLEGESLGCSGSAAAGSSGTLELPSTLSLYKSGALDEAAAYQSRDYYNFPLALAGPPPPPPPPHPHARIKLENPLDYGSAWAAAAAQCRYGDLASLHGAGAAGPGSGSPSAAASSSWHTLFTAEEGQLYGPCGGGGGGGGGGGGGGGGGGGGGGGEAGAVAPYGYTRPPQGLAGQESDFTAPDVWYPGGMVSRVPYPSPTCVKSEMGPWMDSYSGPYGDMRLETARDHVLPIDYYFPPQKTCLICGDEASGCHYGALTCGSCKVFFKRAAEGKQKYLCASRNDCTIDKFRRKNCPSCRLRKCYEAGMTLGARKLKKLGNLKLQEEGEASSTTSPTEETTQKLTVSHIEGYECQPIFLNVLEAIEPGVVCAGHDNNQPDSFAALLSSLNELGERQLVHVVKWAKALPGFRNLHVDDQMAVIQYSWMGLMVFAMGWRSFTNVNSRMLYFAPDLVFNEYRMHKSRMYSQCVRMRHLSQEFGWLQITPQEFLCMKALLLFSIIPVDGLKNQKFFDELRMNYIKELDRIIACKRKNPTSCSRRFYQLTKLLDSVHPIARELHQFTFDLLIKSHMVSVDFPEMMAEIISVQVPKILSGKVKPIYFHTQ
Kind of assay: AR Antagonist Cell Assay (MMTV-luciferase reporter, inhibition of DHT induction). Format: cell-based. The procedure:
The compounds ability to antagonize the effects of androgen on the androgen receptor were determined in the protocol described immediately below.
Experimental Procedure for AR Antagonist Cell Assay
Cell line: MDA-MB453-MMTV clone 54–19. This cell line is a stable transfected cell line with MDA-MB453 cell background (human breast tumor cell expressing high level of androgen receptor). A MMTV minimal promoter containing ARE was first cloned in front of a firefly luciferase reporter gene. Then the cascade was cloned into transfection vector pUV120puro. Electroporation method was used for transfecting MDA-MB-453 cell. Puromycin resistant stable cell line was selected. Cell Culture Media and Reagents:
Culture medium: DMEM (high glucose, Gibco cat #: 11960-044), 10% FBS, and 1% L-glutamine
Plating medium: DMEM (phenol red free), 10% charcoal treated HyClone serum, 1% L-glutamine
Assay medium: DMEM (phenol red free), 1% charcoal treated HyClone serum, 1% L-glutamine, and 1% penicillin/streptomycin
3× luciferase buffer: 2% beta-mercaptoethanol, 0.6% ATP, 0.0135% luciferine in cell lysis buffer
• 1. Cells are maintained in culture medium, splitting cells when they reach 80–90% confluence • 2. To test compounds, 10,000 cells/well are plated to opaque 96 cell culture plate in 100 ul/well plating medium, culture for overnight at 37° C. in cell culture incubator • 3. Carefully remove plating medium, then add 80 ul/well of pre-warmed assay medium, add 10 ul/well testing compound (final concentration at 10 uM or 1 uM), incubate at 37° C. for 30 minutes • 4. Add 10 ul/well freshly prepared DHT (final concentration at 100 pM) to each well, incubate at 37° C. for 17 hr (overnight) • 5. Add 50 ul/well 3× luciferase buffer, incubate at room temperature for 5 minutes, then count on Luminometer The fold induction over background by 100 pM DHT in the absence of testing compounds is standardized as 100% and experimental result is expressed as percentage of inhibition by testing compounds.
A general note: In a reporter assay the amount or activity of a reporter protein is the signal.

Setting [1] is: MDA-MB453-MMTV clone 54-19 cells, 100 pM DHT, 17 hr, luciferase, read-out: Cell IC50.

pIC50: −log10 of the molar value. Read-outs that look alike come from different tables or passages of the source. A value given as a limit tells only on which side of the number the result lay.

Consider `O=c1cc(C(F)(F)F)c2cc(S(=O)(=O)N3CCN(CCc4cccs4)CC3)ccc2[nH]1` [Example 32, 6-[4-(2-Thiophen-2-ylethyl)piperazine-1-sulfonyl]-4-trifluoromethyl-1H-quinolin-2-one], for which the pIC50 under setting [1] is 5.58.

As for `O=c1cc(C(F)(F)F)c2cc(S(=O)(=O)N3CCCC3)ccc2[nH]1` [Example 33, 6-(Pyrrolidine-1-sulfonyl)-4-trifluoromethyl-1H-quinolin-2-one], the pIC50 under setting [1] was 6.51. For the compound `Cn1c(=O)cc(C(F)(F)F)c2cc(S(=O)(=O)N3CCSC3)ccc21` [Example 7, 1-Methyl-6-(thiazolidine-3-sulfonyl)-4-trifluoromethyl-1H-quinolin-2-one], the pIC50 under setting [1] was less than 5.00. The same measure, in the same setting: the figure for `Cn1c(=O)cc(C(F)(F)F)c2cc(S(=O)(=O)N3CCCc4ccccc43)ccc21` [Example 11, 6-(3,4-Dihydro-2H-quinoline-1-sulfonyl)-1-methyl-4-trifluoromethyl-1H-quinolin-2-one] is less than 5.00; for `Cn1c(=O)cc(C(F)(F)F)c2cc(S(=O)(=O)N3CCCC4CCCCC43)ccc21` (centres unmarked) [Example 8, 1-Methyl-6-(octahydro-quinoline-1-sulfonyl)-4-trifluoromethyl-1H-quinolin-2-one] it is less than 5.00. As to `COc1cc2c(cc1OC)CN(S(=O)(=O)c1ccc3[nH]c(=O)cc(C(F)(F)F)c3c1)CC2` [Example 21, 6-(6,7-Dimethoxy-3,4-dihydro-1H-isoquinoline-2-sulfonyl)-4-trifluoromethyl-1H-quinolin-2-one], the pIC50 under setting [1] is 6.32. On the same count and under the same terms, the figure for `CC1CCN(S(=O)(=O)c2ccc3[nH]c(=O)cc(C(F)(F)F)c3c2)CC1` [Example 24, 6-(4-Methylpiperidine-1-sulfonyl)-4-trifluoromethyl-1H-quinolin-2-one] is 6.02. On to `O=c1cc(C(F)(F)F)c2cc(S(=O)(=O)N3CCCC3CO)ccc2[nH]1` (centres unmarked) [Example 30, 6-(2-Hydroxymethyl-pyrrolidine-1-sulfonyl)-4-trifluoromethyl-1H-quinolin-2-one], for which the pIC50 under setting [1] is 5.66.

Turning to `O=C(CN1CCN(S(=O)(=O)c2ccc3[nH]c(=O)cc(C(F)(F)F)c3c2)CC1)N1CCCC1` [Example 23, 6-[4-(2-Oxo-2-pyrrolidin-1-ylethyl)piperazine-1-sulfonyl]-4-trifluoromethyl-1H-quinolin-2-one], under setting [1], the pIC50 was less than 5.00. On the same count and under the same terms, with `O=c1cc(C(F)(F)F)c2cc(S(=O)(=O)N3CCN(Cc4ccco4)CC3)ccc2[nH]1` [Example 17, 6-(4-Furan-2-ylmethylpiperazine-1-sulfonyl)-4-trifluoromethyl-1H-quinolin-2-one] the figure was 5.53; with `CC1CN(S(=O)(=O)c2ccc3c(c2)c(C(F)(F)F)cc(=O)n3C)CC(C)O1` (centres unmarked) [Example 10, 6-(2,6Dimethylmorpholine-4-sulfonly)-1-methyl-4-trifluoromethyl-1H-quinolin-2-one], less than 5.00; with `O=c1cc(C(F)(F)F)c2cc(S(=O)(=O)N3CCCCCCC3)ccc2[nH]1` [Example 12, 6-(Azocane-1-sulfonyl)-4-trifluoromethyl-1H-quinolin-one], 5.91. Same read-out and setting: the figure for `CCOC(=O)C1CCN(S(=O)(=O)c2ccc3[nH]c(=O)cc(C(F)(F)F)c3c2)CC1` [Example 15, 1-(2-Oxo-4-trifluoromethyl-1,2-dihydroquinoline-6-sulfonyl)piperidine-4-carboxylic acid ethylester] is 5.90; for `O=c1cc(C(F)(F)F)c2cc(S(=O)(=O)N3CCC3)ccc2[nH]1` [Example 39, 6-(Azetidine-1-sulfonyl)-4-trifluoromethyl-1H-quinolin-2-one] it is 6.37. Still for that read-out and setting: the figure for `O=c1cc(C(F)(F)F)c2cc(S(=O)(=O)N3CCC(O)(c4cccs4)CC3)ccc2[nH]1` [Example 16, 6-(4-Hydroxy-4-thiophen-2-ylpiperidine-1-sulfonyl)-4-trifluoromethyl-1H-quinolin-2-one] is 6.19. With `O=c1cc(C(F)(F)F)c2cc(S(=O)(=O)N3CCN(c4ccccn4)CC3)ccc2[nH]1` [Example 40, 6-(4-Pyridin-2-ylpiperazine-1-sulfonyl)-4-trifluoromethyl-1H-quinolin-2-one], the pIC50 under setting [1] is less than 5.00. Take `O=c1cc(C(F)(F)F)c2cc(S(=O)(=O)N3CCCCC3)ccc2[nH]1` [Example 2, 6-(Piperidine-1-sulfonyl)-4-trifluoromethyl-1H-quinolin-2-one]: the pIC50 (per procedure of Example 57, read-out: IC50) was 6.74. For `O=c1cc(C(F)(F)F)c2cc(S(=O)(=O)N3CCN(C4CCCC4)CC3)ccc2[nH]1` [Example 38, 6-(4-Cyclopentylpiperazine-1-sulfonyl)-4-trifluoromethyl-1H-quinolin-2-one], the pIC50 under setting [1] is less than 5.00.

Consider `CCN1CCN(S(=O)(=O)c2ccc3c(c2)c(C(F)(F)F)cc(=O)n3C)CC1` [Example 5, 6-(4-Ethylpiperazine-1-sulfonyl)-1-methyl-4-trifluoromethyl-1H-quinolin-2-one], for which the pIC50 under setting [1] is less than 5.00. On the same count and under the same terms, with `O=c1cc(C(F)(F)F)c2cc(S(=O)(=O)N3CCC(N4CCCC4)CC3)ccc2[nH]1` [Example 13, 6-(4-Pyrrolidin-1-ylpiperidine-1-sulfonyl)-4-trifluoromethyl-1H-quinolin-2-one] the figure was less than 5.00; with `O=c1cc(C(F)(F)F)c2cc(S(=O)(=O)N3CCN(c4ccncc4)CC3)ccc2[nH]1` [Example 27, 6-(4-Pyridin-4-ylpiperazine-1-sulfonyl)-4-trifluoromethyl-1H-quinolin-2-one], less than 5.00. Still for that read-out and setting: the figure for `O=c1cc(C(F)(F)F)c2cc(S(=O)(=O)N3CCC4(CC3)OCCO4)ccc2[nH]1` [Example 22, 6-(1,4-Dioxa-8-azaspiro[4.5]decane-8-sulfonyl)-4-trifluoromethyl-1H-quinolin-2-one] is 5.72; for `O=c1cc(C(F)(F)F)c2cc(S(=O)(=O)N3CCCCCC3)ccc2[nH]1` [Example 36, 6-(Azepane-1-sulfonyl)-4-trifluoromethyl-1H-quinolin-2-one] it is 6.74.
